Assay results reported in US10662169B2, “Catechol derivative and pharmaceutical composition comprising the same” (AUTOPHAGYSCIENCES INC., priority 2015, dated 2020).

Tests used:
[1] = tested on: acute liver injury induced by carbon tetrachloride; experiment: Model of acute liver injury induced by carbon tetrachloride; type: in vivo, C57BL/6 mice; conditions: 50 mg/kg orally three times every 12 hours, then CCl4 5 mL/kg i.p.; autopsy 24 hours later; FIG. 4
Description: Attempts were made to confirm the inhibitory effect of autophagy activator on liver injury in an animal model of induced liver fibrosis due to acute liver injury. In order to confirm the effect of inhibiting acute liver injury, carbon tetrachloride (CCl4) was administered to C57BL/6 mice to induce acute liver injury, and then the compound according to the present invention was administered. It was then confirmed whether liver injuries were inhibited. Five-week-old female C57BL/6 mice were introduced and acclimated for one week, and then divided into six groups respectively; a normal control group, a group to which carbon tetrachloride was administered, and groups to which the compounds according to the present invention (Examples 1, 2, 5, and 7) were administered. Each of the compounds according to the present invention was dissolved in corn oil and administered orally three times at a dose of 50 mg/kg (body weight) every 12 hours. 30 Minutes after final oral administration, carbon tetrachloride was intraperitoneally administered at a dose of 5 mL/kg (body weight) and then autopsied 24 hours later top remove a sample of liver tissue under autopsy and fix it, thereby preparing a tissue specimen. After preparation of tissue specimen slides, H & E staining was performed and liver injuries were confirmed with a microscope.

[2] = tested on: liver fibrosis induced by thioacetamide; experiment: Model of liver fibrosis induced by thioacetamide (TAA); type: in vivo, C57BL/6 mice; conditions: TAA 200 mg/kg i.p. three times a week for 6 weeks; compound 50 mg/kg orally once a day for 8 days; FIG. 7
Description: In order to confirm the effect of inhibiting liver fibrosis caused by chronic liver injury, thioacetamide (TAA) was administered to C57BL/6 mice to induce chronic liver injury, thereby inducing liver fibrosis, and then the compounds according to the present invention were administered. It was then confirmed whether chronic liver injuries were inhibited. Five-week-old female C57BL/6 mice were introduced and acclimated for one week, and then divided into six groups respectively; a normal control group, a group to which thioacetamide was administered, and groups to which the compounds according to the present invention (Examples 2, 5 and 7) were administered. Thioacetamide was dissolved in phosphate-buffered physiological saline and administered intraperitoneally at a dose of 200 mg/kg (body weight) three times a week, for a total of 6 weeks. Three compounds according to the present invention was dissolved in corn oil […] and administered orally at a dose of 50 mg/kg (body weight) once a day for a total of 8 days. Twenty-four hours after the final oral administration, an autopsy was performed to remove a sample of liver tissue and fix it, thus preparing a tissue specimen. After preparation of tissue specimen slides. H & E staining was performed, and liver tissue injury as well as inflammatory cell infiltration in liver tissue were confirmed by microscopy. […]

[3] = tested on: LC3-II in primary hepatocytes; experiment: Autophagy activation: LC3-II Western immunoblotting in primary hepatocytes, ischemia-reperfusion model; type: cell-based, C57BL/6 mice; conditions: FIG. 1, FIG. 2
Description: Primary hepatocyte was isolated from male C57BL/6 mice by a collagenase perfusion method which is a known method (Gastroenterology 2011, 141, 2188). Survival rate of the isolated cells was measured by trypan blue exclusion method. Autophagy was induced by ischemia-reperfusion method (Gastroenterology 2011, 141, 2188).
Specifically, in order to induce ischemia, hepatocytes were incubated at 37° C. in Krebs-Ringer-HEPES (KRH0) buffer (pH 6.2) in an anaerobic chamber for 2 hours. The respective hepatocytes were treated with DMSO, the compound prepared in Examples described above, or Rapamycin as a control substance, and then KRH buffer solution at pH 7.4 was treated under aerobic conditions for 1 hour to induce reperfusion. […] The amount of protein was measured with bovine serum albumin as a protein standard using Bio-Rad Protein Assay Kit (Cat No. 500-0002). […] Then, bands were measured using ECL (Enhanced Chemiluminescence, Thermo Scientific, Cat No. 34080). […]
The amount of LC3-II increased by the compound treatment was quantified by measuring the band density, and then compared with the amount of LC3-II increased by the treatment of Rapamycin used as a control substance, and the comparison values are shown in Table 1.

[4] = tested on: liver fibrosis induced by carbon tetrachloride; experiment: Model of liver fibrosis induced by carbon tetrachloride (chronic); type: in vivo, C57BL/6 mice; conditions: for liver fibrosis, Masson's Trichrome staining: CCl4 0.8 ml/kg i.p., FIG. 10
Description: In order to confirm the effect of inhibiting liver fibrosis caused by chronic liver injury, carbon tetrachloride was administered to C57BL/6 mice to induce chronic liver injury, thereby inducing liver fibrosis, and then the compounds according to the present invention were administered. It was then confirmed whether chronic liver injuries were inhibited. Five-week-old female C57BL/6 mice were introduced and acclimated for one week, and then divided into six groups respectively; a normal control group, a group to which carbon tetrachloride was administered, and groups to which the compounds according to the present invention (Examples 1 and 5) were administered. Carbon tetrachloride was dissolved in corn oil and administered intraperitoneally at a dose of 0.8 ml/kg (body weight) twice a day, for a total of 8 days. Twenty-four hours after the final oral administration, an autopsy was performed to remove a sample of liver tissue and fix it, thus preparing a tissue specimen. After preparation of tissue specimen slides, H & E staining was performed, and liver tissue injury as well as inflammatory cell infiltration in liver tissue were confirmed by microscopy. In addition, Masson's Trichrome staining was performed, and collagen deposition in the liver tissue was confirmed by microscope.

mTOR = mTOR enzyme activity: p-mTOR (Ser 2448) Western immunoblotting in hepatocyte ischemia-reperfusion model; type: cell-based, C57BL/6 mice; conditions: hepatocytes, FIG. 3
Description: Western immunoblotting was performed using the cell-disrupted liquid obtained in Experimental Example 1. The PVDF membrane obtained from electrophoresis and electroblotting was placed in a TBS-tween solution containing an antibody against mTOR or p-mTOR (Ser 2448) proteins (Cell Signaling), allowed to stand at 4° C. for 12 hours, and then labeled with a secondary antibody labeled with HRP (Horseradish Peroxidase, Sigma Co., Cat No. P0889). Then, bands were measured using ECL (Enhanced Chemiluminescence, Thermo Scientific, Cat No. 34080).
The measurement results are shown in FIG. 3. mTOR is known to be one of the major proteins regulating autophagy. mTOR serves to inhibit autophagy at a quiescent state, whereas phosphorylation at serine 2448-position inhibits the function of mTOR, resulting in activation of autophagy.

[5] = tested on: liver fibrosis induced by bile duct ligation; experiment: Model of liver fibrosis induced by bile duct ligation (BDL); type: in vivo, Sprague Dawley (SD) rats; conditions: BDL rats; 12.5, 25 and 50 mg/kg orally once a day for 14 days; FIG. 13
Description: In order to confirm the effect of inhibiting liver fibrosis caused by chronic liver injury, bile duct ligation (BDL) was performed in Sprague Dawley (SD) rats to induce chronic liver injury, thereby inducing liver fibrosis, and then the compounds according to the present invention were administered. It was then confirmed whether chronic liver injuries were inhibited.
Seven-week-old female SD rats were introduced and acclimated for one week, and then divided into five groups respectively; a control group, a bile duct ligation surgery group, and groups to which the compound according to the present invention (Example 15) was administered at three doses (12.5, 25 and 50 mg/kg body weight). In the control group, the bile duct was not exposed or ligated after laparotomy, and the other groups performed bile duct ligation surgery. One week after bile duct ligation, the compound according to the present invention (Example 1) was dissolved in corn oil and administered orally for each dose once a day for a total of 14 days. […] In addition, a part of the removed liver (10 mg) was decomposed to perform a quantitative experiment of hydroxyproline which is a major component of collagen, and the amount of collagen deposited was quantified, thereby confirming the effects of the compound according to the present invention.

Row | SMILES | liver injury, H & E staining [1] | liver fibrosis (collagen deposition), Masson's Trichrome staining [2] | increase in LC3-II (autophagy induction), Western immunoblotting [3] | liver fibrosis, Masson's Trichrome staining [4] | phosphorylation of mTOR at serine 2448 position (mTOR) | collagen deposition, Example 1 compared with Example 5 ([4]; CCl4 fibrosis model, Masson's Trichrome staining) | collagen deposition, quantitative experiment of hydroxyproline in liver tissue [5]
1 | CC(C)NC(=O)c1ccc(-c2ccc3c(c2)OCO3)s1 [Example 2, 5-(benzo[d][1,3]dioxol-5-yl)-N-isopropylthiophene-2-carboxamide] | recovery effect of liver injury was relatively small | fibrosis was clearly alleviated | – | – | – | – | –
2 | CC(C)CNC(=O)c1ccc(-c2ccc3c(c2)OCO3)s1 [Example 5, 5-(benzo[d][1,3]dioxol-5-yl)-N-isobutylthiophene-2-carboxamide] | liver injury was clearly recovered | fibrosis was clearly alleviated | significant increase in autophagy induction | fibrosis was alleviated | – | – | –
3 | COc1ccc(-c2ccc(C(=O)Nc3ccccc3)s2)cc1OC [Example 7, 5-(3,4-dimethoxyphenyl)-N-phenylthiophene-2-carboxamide] | recovery effect of liver injury was relatively small | – | – | – | – | – | –
4 | COc1ccc(-c2ccc(C(=O)NC(C)C)s2)cc1OC [Example 1, 5-(3,4-dimethoxyphenyl)-N-isopropylthiophene-2-carboxamide] | liver injury was clearly recovered | – | significant increase in autophagy induction | fibrosis was alleviated | significantly inhibited | collagen deposition was less | the smaller the collagen deposition
